According to US20080233210A1, “Co-Biocidal Formulation for Polymeric Materials” (U.S. BORAX INC., priority 2005, published 2008):

Assays:
[1] = test system: Aspergillus niger, Penicillium pinophilum, Chetomium globusum, Gliocladium virens, Aurebasidium pullulans; test: ASTM G-21 fungi resistance of extruded wood/thermoplastic composite boards, unweathered or after QUV accelerated weathering with leaching; assay type: cell-based; set-up: key to Visual Assessment of Fungal Growth (0-4 scale) / Visual assessment of fungal growth, ZB = 2%, Weathering 0 h: 0: None; Traces of growth (less than 10%); 2: Light growth (10 to 30%); Medium growth (more than 30 to 60%); 4: Heavy growth (60% to complete coverage); details: for visual assessment, 0-4 fungal growth assessment scale: oak WPC, no UV stabilizer package; for visual assessment, 0-4 fungal growth assessment scale / Visual Assessment of Fungal Growth (0-4 scale): cobiocide content 0% (borate alone); for Visual Assessment of Fungal Growth (0-4 scale): pine WPC without UV stabilizer
Protocol: Three 50×50×4 mm specimens were cut from the core of extruded boards, sterilized with a 30 kGy dose of Electron beam radiation and exposed to fungi attack according to ASTM G-21.
After 28 days exposure to the fungi at 98% relative humidity and 28° C., specimens were evaluated using the first scale, from 0-4 as recommended by ASTM G-21 (see Table 3). Results are shown in Table 4 with the summary in Tables 5-7.
Samples prepared according to Example 1 were exposed to accelerated weathering using a QUV accelerated weathering chamber with fluorescent bulb combined with leaching cycle. […] This includes cycles comprised of 8 h UV light (UVA 340 lamps @0.77 W/m^2/nm) @60° C. followed by 4 hours condensation @50° C. Samples were exposed to these conditions for 15 hours and then leached in water. Leaching consisted of 4 hours soaking and 3 hours drip dry (1 hours was required for sample handling). […] After exposure, three 1″×2.5″×⅛″ specimens were cut from the sample. The surface exposed to light and leaching and tested for fungi resistance as described in example 2. Results are presented in Table 3 with summary in Tables 4-6
Samples prepared according to Example 1 were exposed to accelerated weathering using a QUV accelerated weathering chamber with fluorescent bulb combined with leaching cycle. Total exposure time was 1000 hours. This includes cycles comprised of 8 h UV light (UVA 340 lamps @0.77 W/m^2/nm) @60° C. followed by 4 hours condensation @50° C. Samples were exposed to these conditions for 16 hours and then leached in water. Leaching consisted of 4 hours soaking and 3 hours drip dry (1 h was required for sample handling). […] After exposure, three 1″×2.5″×⅛″ specimens were cut from the sample. The surface exposed to light and leaching and tested for fungi resistance as described in Example 2. Results are presented in Table 3 with summary in Tables 4-6.

[2] = test system: Aspergillus niger, Penicillium pinophilum, Chetomium globusum, Gliocladium virens, Aurebasidium pullulans; test: ASTM G-21 fungi exposure of dried paint coating films; assay type: cell-based; details: coating film, ASTM G-21, 28 days; very high concentrations of Chlortram (0.33%)
Protocol: The coatings were cast on flat polyethylene sheeting and dried into 10 mil thick film before removal from the polyethylene substrate. The dried paint coatings were cut into 2″×2″ square specimens, sterilized with 30 kGy EB radiation and exposed to fungi attack according to ASTM G-21. After 28 days exposure to the fungi at 98% relative humidity and 28° C., the specimens were evaluated using two scales.

Molecule: Zinc borate [ZB]
- visual assessment, 0-4 fungal growth assessment scale ([1]; ZB = 1%, weathering 0 h): 4 (Heavy growth (60% to complete coverage))
- visual assessment, 0-4 fungal growth assessment scale ([1]; ZB = 1%, weathering 500 h): 4 (Heavy growth (60% to complete coverage))
- visual assessment, 0-4 fungal growth assessment scale ([1]; ZB = 1%, weathering 1000 h): 3 (Medium growth (more than 30 to 60%))
- visual assessment, 0-4 fungal growth assessment scale ([1]; ZB = 1.5%, weathering 0 h): 2 (Light growth (10 to 30%))
- visual assessment, 0-4 fungal growth assessment scale ([1]; ZB = 2%, weathering 0 h): 2 (Light growth (10 to 30%))
- visual assessment, 0-4 fungal growth assessment scale ([1]; ZB = 2%, weathering 500 h): 3 (Medium growth (more than 30 to 60%))
- visual assessment, 0-4 fungal growth assessment scale ([1]; ZB = 2%, weathering 1000 h): 3 (Medium growth (more than 30 to 60%))
- Visual assessment of fungal growth, ZB = 1%, Weathering 0 h ([1]; pine WPC with UV stabilizer package, cobiocide content 0%, ZB = 1%, 0 h): 1 (Traces of growth (less than 10%))
- Visual assessment of fungal growth, ZB = 1%, Weathering 500 h ([1]; pine WPC with UV stabilizer package, cobiocide content 0%, ZB = 1%, 500 h): 4 (Heavy growth (60% to complete coverage))
- Visual assessment of fungal growth, ZB = 1%, Weathering 1000 h ([1]; pine WPC with UV stabilizer package, cobiocide content 0%, ZB = 1%, 1000 h): 4 (Heavy growth (60% to complete coverage))
- Visual assessment of fungal growth, ZB = 2%, Weathering 0 h ([1]; pine WPC with UV stabilizer package, cobiocide content 0%, ZB = 2%, 0 h): 0
- Visual assessment of fungal growth, ZB = 2%, Weathering 500 h ([1]; pine WPC with UV stabilizer package, cobiocide content 0%, ZB = 2%, 500 h): 3 (Medium growth (more than 30 to 60%))
- Visual assessment of fungal growth, ZB = 2%, Weathering 1000 h ([1]; pine WPC with UV stabilizer package, cobiocide content 0%, ZB = 2%, 1000 h): 4 (Heavy growth (60% to complete coverage))
- Visual Assessment of Fungal Growth (0-4 scale) ([1]; ZB = 1%, weathering 0 h): 2 (Light growth (10 to 30%))
- Visual Assessment of Fungal Growth (0-4 scale) ([1]; ZB = 1%, weathering 500 h): 4 (Heavy growth (60% to complete coverage))
- Visual Assessment of Fungal Growth (0-4 scale) ([1]; ZB = 1%, weathering 1000 h): 4 (Heavy growth (60% to complete coverage))
- Visual Assessment of Fungal Growth (0-4 scale) ([1]; ZB = 1.5%, weathering 0 hours): 1 (Traces of growth (less than 10%))
- Visual Assessment of Fungal Growth (0-4 scale) ([1]; ZB = 2%, weathering 0 h): 0
- Visual Assessment of Fungal Growth (0-4 scale) ([1]; ZB = 2%, weathering 500 h): 4 (Heavy growth (60% to complete coverage))

Molecule: OB(O)O [BA]
- Visual Assessment of Fungal Growth (0-4 scale) ([1]; BA = 1%, weathering 0 hours): 4 (Heavy growth (60% to complete coverage))
- Visual Assessment of Fungal Growth (0-4 scale) ([1]; BA = 2%, weathering 0 hours): 3 (Medium growth (more than 30 to 60%))

Molecule: N#Cc1c(Cl)c(Cl)c(Cl)c(C#N)c1Cl [Chlortram, 2,4,5,6 tetrachloro-1,3-benzene-dicarbonitrile]
- fungal growth observed on coating specimens [2]: No fungal growth
